Data from US9328078B2, “Benzofurazan anti-amyloid compounds and methods” (Treventis Corporation, priority 2012, dated 2016).

Columns and labels:
[1] = target: T1, Biotin-Aβ(1-42) (Homo sapiens, UniProt P05067); assay: Biotin-Aβ(1-42) oligomeric assay; format: biochemical; conditions: inhibition of oligomer formation at 25 uM, 30 minutes; higher = more inhibition
T1 construct: Biotin-Aβ(1-42) (AnaSpec) at 0.2 mg/ml in hexafluoroisopropanol (HFIP); purchased AnaSpec
Procedure: The following assay was adapted from H. LeVine III. Biotin-avidin interaction-based screening assay for Alzheimer's β-peptide oligomer inhibitors, Anal. Biochem. 356 (2006) 265-272 and A. Frey, B. Meckelein, D. Externest, M. A. Schmidt A stable and highly sensitive 3,3′,5,5′-tetramethylbenzidine-based substrate reagent for enzyme-linked immunosorbent assays, J. Immunol. Methods 233 (2000) 47-56.
Biotin-Aβ(1-42) (AnaSpec) at 0.2 mg/ml in hexafluoroisopropanol (HFIP) was further diluted in 20 volumes of HFIP, which was then evaporated under a stream of argon. 20 volumes of trifluoroacetic acid was added and let rest for 10 minutes, then evaporated under a stream of argon. Another 20 volumes of HFIP was added and evaporated under a stream of argon. Biotin-Aβ(1-42) was brought to a final concentration of 2.3 mg/ml in DMSO. Oligomer formation was initiated in 96 well round bottom polypropylene plates by diluting the prepared biotin-Aβ(1-42) 50× in 20 mM sodium phosphate pH 7.5, 150 mM NaCl in the presence of vehicle or compound. Oligomer formation was halted after 30 minutes by the addition of 50 μl/well of 0.3% Tween-20.
96 well Costar high-binding microplates were coated overnight at +4° C. with 50 μl/well of 1 ug/ml NeutrAvidin (ThermoScientific) in 10 mM sodium phosphate, pH 7.5. Plates were blocked for 2 hours at room temperature with 200 μl/well 20 mM sodium phosphate pH 7.5, 150 mM NaCl, 0.1% Tween-20. The oligomer preparation was transferred at 50 μl/well to the blocked plate and incubated for 2 hours at room temperature with shaking at 150 rpm. The plate was then washed three times with 200 μl/well 20 mM tris-HCl pH 7.5, 34 mM NaCl, 0.1% Tween-20 (TBS-T). Streptavidin-HRP (Rockland Immunochemicals) [1:20,000] in 20 mM sodium phosphate pH 7.5, 150 mM NaCl, 0.1% Tween-20 was added at 50 μl/well and incubated in the dark at room temperature for 1 hour with shaking at 150 rpm. The plate was washed three times with 200 μl/well of TBS-T. Tetramethylbenzidine/H2O2 substrate was prepared by mixing 250 μl of 41 mM 3,3′,5,5′-tetramethylbenzidine, 8.2 mM tetrabutylammonium borohydride in dimethylacetamide with 10 ml of 205 mM K3 citrate pH 4.0, 3.075 mM H2O2 and incubating for 15 minutes at room temperature. Prepared substrate solution was added at 100 μl/well and the reaction was allowed to proceed for 15 minutes, after which it was terminated by the addition of 100 μl/well of 1% H2SO4. The OD450nm was determined using a Tecan Infinite F200 plate reader.

[2] = target: Aβ40 (Homo sapiens, UniProt P05067); assay: kinetic ThT assay for Aβ aggregation; format: biochemical; conditions: for inhibition at 5 µM: 80 h, compound 5 μm, read-out: % inhib Aβ 40 (5 μm); for inhibition at 10 µM: compound 10 μM, read-out: % inhib Aβ 40 10 μM
Procedure: Aβ40 (1.0 mg) was pre-treated in a 1.5 mL microfuge tube with HFIP (1 mL) and sonicated for 20 min to disassemble any pre-formed Aβ aggregates. The HFIP was removed with a stream of argon and the Aβ dissolved in Tris base (5.8 mL, 20 mM, pH˜10). The pH was adjusted to 7.4 with concentrated HCl (˜10 μL) and the solution filtered using a syringe filter (0.2 μm) before being used.
The kinetic ThT assay for AP aggregation is similar to that of Chalifour et al (Chalifour et al, 2003, J. Biol. Chem. 278:34874-81). Briefly, pre-treated Aβ40 or Aβ42 (40 μM in 20 mM Tris, pH 7.4) was diluted with an equal volume of 8 μM Thioflavin T (ThT) in Tris (20 mM, pH 7.4, 300 mM NaCl). Aliquots of Aβ/ThT (200 μL) were added to wells of a black polystyrene 96-well plate, followed by 2 μL of a compound in DMSO (variable concentration), or DMSO alone (controls). Incubations were performed in triplicate and were taken to contain 20 μM Aβ, various concentration of compound in 20 mM Tris, pH 7.4, 150 mM NaCl, 1% DMSO. Plates were covered with clear polystyrene lids and incubated at 37° C. in a Tecan Genios microplate reader.
Fluorescence readings (λex=450 nm, λem=480 nm) were taken every 15 min., after first shaking at high intensity for 15 s and allowing to settle for 10 s before each reading. Active compounds attenuated the increase in fluorescence over time that occurred in controls. In FIGS. 1-7, the time this procedure was performed extended to 80 hours (rightmost part of X-axis), at which point fluorescence increase generally reached an asymptote. Applying a definition of DMSO control at 80 hr as 100% aggregation (0% inhibition) and DMSO control at 0 hr as 0% aggregation (100% inhibition), a % inhibition score where higher is better can be calculated for a given concentration of compound. By repeating this procedure over several concentrations, a […] (IC50) can be measured, as is given in the table below for some compounds.
Data is summarized in the table below; numbers given in parenthesis are the values in that particular experiment for compound ID 1027, given as the first entry in this table for comparison.

[3] = DMSO control at 80 hr = 0% inhibition, parenthesis = compound 1027

T1 sequence (P05067 672-713 limits assumed): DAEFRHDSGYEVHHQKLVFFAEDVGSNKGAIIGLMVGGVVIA
Aβ40, sequence (P05067 672-711 limits assumed, species assumed): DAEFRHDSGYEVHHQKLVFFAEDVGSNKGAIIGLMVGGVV

| SMILES | inhibition at 25 µM [1] [%] | inhibition at 5 µM [2, 3] [%] | inhibition at 10 µM [2, 3] [%] | IC50 ([2]; ThT fluorescence, 20 μM Aβ, 37° C., up to 80 hr, parenthesis = compound 1027 in same experiment, read-out: IC50 A β 1-40) [µM] | inhibition at 20 µM ([2]; compound 20 μM, DMSO control at 80 hr = 0% inhibition, parenthesis = compound 1027, read-out: % inhib. A β 40 (20 μM)) [%] |
| --- | --- | --- | --- | --- | --- |
| OC(c1cccc(-c2cc(N3CCC[C@H]3CN3CCCC3)c3nonc3c2)c1)C(F)(F)F (stereo partly drawn) [TRV-1452] | 76 | 50 | 63 | – | – |
| CN(C)C1CCN(c2cc(-c3cccc(C(O)C(F)(F)F)c3)cc3nonc23)CC1 (stereo not drawn) [TRV-1466] | 72 | 36.9 | 49 | – | – |
| OC(c1cccc(-c2cc(N3CCC(N4CCCC4)CC3)c3nonc3c2)c1)C(F)(F)F (stereo not drawn) [TRV-1387] | 75 | 40 | 52 | 5.76 | 78 |
| OC1CCN(c2cc(-c3cccc(C(O)C(F)(F)F)c3)cc3nonc23)C1 (stereo not drawn) [TRV-1448] | -23 | 45 | 55 | – | – |
| CC(C)(O)[C@@H]1CCCN1c1cc(-c2cccc(C(O)C(F)(F)F)c2)cc2nonc12 (stereo partly drawn) [TRV-1449] | -3 | 55 | 72 | – | – |
| CN(Cc1ccc(F)cc1)c1cc(-c2cccc(C(=O)N3CCCC3)c2)cc2nonc12 [TRV-1460] | 10 | 36 | 44 | – | – |
| OC(c1cccc(-c2cc(N3CC(CN4CCCC4)C3)c3nonc3c2)c1)C(F)(F)F (stereo not drawn) [TRV-1457] | 82 | 51 | 65 | – | – |
| CN(Cc1nccs1)c1cc(-c2cccc(C(O)C(F)(F)F)c2)cc2nonc12 (stereo not drawn) [TRV-1459] | -32 | 47 | 62 | – | – |
| OC(c1cccc(-c2cc(N3CC(N4CCOCC4)C3)c3nonc3c2)c1)C(F)(F)F (stereo not drawn) [TRV-1462] | 23 | 53 | 48 | – | – |
| OC(c1cccc(-c2cc(N3CC(N4CCCC4)C3)c3nonc3c2)c1)C(F)(F)F (stereo not drawn) [TRV-1456] | 3 | 36 | 64 | – | – |
| CC(C)(O)C1CN(c2cc(-c3cccc(C(O)C(F)(F)F)c3)cc3nonc23)C1 (stereo not drawn) [TRV-1435] | 29 | 52 | 66 | – | – |
| OC[C@@H]1CCCN1c1cc(-c2cccc(C(O)C(F)(F)F)c2)cc2nonc12 (stereo partly drawn) [TRV-1450] | 32 | 57 | 79 | – | – |
| CN(C)CCCN(C)c1cc(-c2cccc(C(O)C(F)(F)F)c2)cc2nonc12 (stereo not drawn) [TRV-1465] | 69 | – | – | – | – |
| OC(c1cccc(-c2cc(N3CC(CN4CCOCC4)C3)c3nonc3c2)c1)C(F)(F)F (stereo not drawn) [TRV-1455] | 29 | 41 | 60 | – | – |
| COC(C)C1CN(c2cc(-c3cccc(C(O)C(F)(F)F)c3)cc3nonc23)C1 (stereo not drawn) [TRV-1461] | -28 | 58.9 | 71.7 | – | – |
| CC(O)C1CN(c2cc(-c3cccc(C(O)C(F)(F)F)c3)cc3nonc23)C1 (stereo not drawn) [TRV-1451] | 4 | 54 | 73 | – | – |
